{
  "source": "patent US10251889B2",
  "about": "“Substituted pyrazolo[1,5-a]pyrimidine compounds as Trk kinase inhibitors” (Array BioPharma, Inc., priority 2009, dated 2019)",
  "note": "Counter-ions that a name gives are not always drawn.",
  "data": [
    {"target": "Jak2 (human Jak2 kinase domain, amino acids 808-1132) (Homo sapiens (Human), UniProt O60674)", "sequence (O60674 808-1132)": "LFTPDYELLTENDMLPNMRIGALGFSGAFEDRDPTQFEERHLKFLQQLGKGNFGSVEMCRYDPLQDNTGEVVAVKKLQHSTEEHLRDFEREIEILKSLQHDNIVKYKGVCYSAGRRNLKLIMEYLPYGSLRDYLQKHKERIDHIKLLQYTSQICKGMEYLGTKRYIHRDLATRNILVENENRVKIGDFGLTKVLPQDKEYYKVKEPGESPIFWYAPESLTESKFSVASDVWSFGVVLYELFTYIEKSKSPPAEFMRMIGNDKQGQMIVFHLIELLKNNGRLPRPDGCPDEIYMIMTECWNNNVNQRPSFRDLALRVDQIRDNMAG", "assay": "Jak2 inhibition assay (Omnia kinase assay)", "format": "biochemical", "conditions": "read-out: Jak2 Enzyme (% inhibition at 1000 nM)", "units": {"inhibition at 1 µM": "%"}, "values": [
      {"smiles": "O=C(N[C@@H]1CCNC[C@@H]1F)c1cnn2ccc(N3CCC[C@@H]3c3cc(F)ccc3F)nc12", "note": "[Example 61, 5-((R)-2-(2,5-difluorophenyl)pyrrolidin-1-yl)-N-((3S,4R)-3-fluoropiperidin-4-yl)pyrazolo[1,5-a]pyrimidine-3-carboxamide Hydrochloride]", "inhibition at 1 µM": 54.4}
    ]},
    {"target": "Jak2 (human Jak2 kinase domain, amino acids 808-1132) (Homo sapiens (Human), UniProt O60674)", "assay": "Jak2 inhibition assay (Omnia kinase assay)", "format": "biochemical", "conditions": "read-out: Jak2 Enzyme (% inhibition at 1000 nM), Table 1; 1000 nM test compound", "units": {"inhibition at 1 µM": "%"}, "values": [
      {"smiles": "C[C@@H](O)CNC(=O)c1cnn2ccc(N3CCCC3c3cc(F)ccc3F)nc12", "note": "(stereo in doubt) [Example 167, 5-((R)-2-(2,5-difluorophenyl)pyrrolidin-1-yl)-N-(2-hydroxypropyl)pyrazolo[1,5-a]pyrimidine-3-carboxamide]", "inhibition at 1 µM": 9.8},
      {"smiles": "O=C(O)C1CCN(C(=O)c2cnn3ccc(N4CCC[C@@H]4c4cc(F)ccc4F)nc23)CC1", "note": "[Example 11, (R)-1-(5-(2-(2,5-difluorophenyl)pyrrolidin-1-yl)pyrazolo[1,5-a]pyrimidine-3-carbonyl)piperidine-4-carboxylic Acid]", "inhibition at 1 µM": 10.1},
      {"smiles": "CCc1ncc(F)cc1[C@H]1CCCN1c1ccn2ncc(C(=O)N[C@H]3CC[C@H](O)CC3)c2n1", "note": "[Example 199, 5-((R)-2-(2-ethyl-5-fluoropyridin-3-yl)pyrrolidin-1-yl)-N-((trans)-4-hydroxycyclohexyl)pyrazolo[1,5-a]pyrimidine-3-carboxamide]", "inhibition at 1 µM": 38.8},
      {"smiles": "CC(C)(C)NC(=O)c1cnn2ccc(N3CCC[C@@H]3c3cc(F)ccc3F)nc12", "note": "[Example 1, (R)—N-tert-butyl-5-(2-(2,5-difluorophenyl)pyrrolidin-1-yl)pyrazolo[1,5-a]pyrimidine-3-carboxamide]", "inhibition at 1 µM": 39.5},
      {"smiles": "Cn1cc(CNC(=O)c2cnn3ccc(N4CCC[C@@H]4c4cc(F)ccc4F)nc23)cn1", "note": "[Example 22, (R)-5-(2-(2,5-difluorophenyl)pyrrolidin-1-yl)-N-((1-methyl-1H-pyrazol-4-yl)methyl)pyrazolo[1,5-a]pyrimidine-3-carboxamide]", "inhibition at 1 µM": 9.8},
      {"smiles": "CNC(=O)c1cnn2ccc(N3CCC[C@@H]3c3cc(F)cnc3C)nc12", "note": "[Example 186, (R)-5-(2-(5-fluoro-2-methylpyridin-3-yl)pyrrolidin-1-yl)-N-methylpyrazolo[1,5-a]pyrimidine-3-carboxamide]", "inhibition at 1 µM": 10.5},
      {"smiles": "O=C(NCC(F)F)c1cnn2ccc(N3CCC[C@@H]3c3cncc(F)c3)nc12", "note": "[Example 134, (R)-N-(2,2-difluoroethyl)-5-(2-(5-fluoropyridin-3-yl)pyrrolidin-1-yl)pyrazolo[1,5-a]pyrimidine-3-carboxamide]", "inhibition at 1 µM": 3.3},
      {"smiles": "O=C(N[C@H]1CCC[C@H]1O)c1cnn2ccc(N3CCC[C@@H]3c3cncc(F)c3)nc12", "note": "[Example 104, 5-((R)-2-(5-fluoropyridin-3-yl)pyrrolidin-1-yl)-N-((1S,2R)-2-hydroxycyclopentyl)pyrazolo[1,5-a]pyrimidine-3-carboxamide]", "inhibition at 1 µM": 6.1},
      {"smiles": "O=C(NCC(F)(F)F)c1cnn2ccc(N3CCC[C@@H]3c3cncc(F)c3)nc12", "note": "[Example 131, (R)-5-(2-(5-fluoropyridin-3-yl)pyrrolidin-1-yl)-N-(2,2,2-trifluoroethyl)pyrazolo[1,5-a]pyrimidine-3-carboxamide]", "inhibition at 1 µM": 14.6},
      {"smiles": "O=C(NC1(C(=O)O)CC1)c1cnn2ccc(N3CCC[C@@H]3c3cc(F)ccc3F)nc12", "note": "[Example 84, (R)-1-(5-(2-(2,5-difluorophenyl)pyrrolidin-1-yl)pyrazolo[1,5-a]pyrimidine-3-carboxamido)cyclopropanecarboxylic Acid]", "inhibition at 1 µM": 2.7},
      {"smiles": "O=C(N[C@H]1CC[C@H](O)CC1)c1cnn2ccc(N3CCC[C@@H]3c3cc(F)ccc3F)nc12", "note": "[Example 7, 5-((R)-2-(2,5-difluorophenyl)pyrrolidin-1-yl)-N-((trans)-4-hydroxycyclohexyl)pyrazolo[1,5-a]pyrimidine-3-carboxamide]", "inhibition at 1 µM": 90},
      {"smiles": "COc1ncc(F)cc1[C@H]1CCCN1c1ccn2ncc(C(=O)N3CC(C)(O)C3)c2n1", "note": "[Example 147, (R)-(5-(2-(5-fluoro-2-methoxypyridin-3-yl)pyrrolidin-1-yl)pyrazolo[1,5-a]pyrimidin-3-yl)(3-hydroxy-3-methylazetidin-1-yl)methanone]", "inhibition at 1 µM": 0.9},
      {"smiles": "C[C@@H](NC(=O)c1cnn2ccc(N3[C@H](CO)CC[C@@H]3c3cncc(F)c3)nc12)C(F)(F)F", "note": "[Example 212, 5-((2R,5S)-2-(5-fluoropyridin-3-yl)-5-(hydroxymethyl)pyrrolidin-1-yl)-N—((R)-1,1,1-trifluoropropan-2-yl)pyrazolo[1,5-a]pyrimidine-3-carboxamide]", "inhibition at 1 µM": 14.2},
      {"smiles": "COc1ncc(F)cc1[C@H]1CCCN1c1ccn2ncc(C(=O)NCC(C)(C)O)c2n1", "note": "[Example 158, (R)-5-(2-(5-fluoro-2-methoxypyridin-3-yl)pyrrolidin-1-yl)-N-(2-hydroxy-2-methylpropyl)pyrazolo[1,5-a]pyrimidine-3-carboxamide]", "inhibition at 1 µM": 14.4},
      {"smiles": "CC1(C)OCC(COc2cc(F)cc([C@H]3CCCN3c3ccn4ncc(C(=O)NC5CC5)c4n3)c2)O1", "note": "(stereo partly drawn) [Example 206, N-cyclopropyl-5-((2R)-2-(3-((2,2-dimethyl-1,3-dioxolan-4-yl)methoxy)-5-fluorophenyl)pyrrolidin-1-yl)pyrazolo[1,5-a]pyrimidine-3-carboxamide]", "inhibition at 1 µM": 12.6},
      {"smiles": "C[C@H](NC(=O)c1cnn2ccc(N3C[C@@H](O)C[C@@H]3c3cccc(F)c3)nc12)C(F)(F)F", "note": "[Example 216, 5-((2R,4S)-2-(3-fluorophenyl)-4-hydroxypyrrolidin-1-yl)-N—((S)-1,1,1-trifluoropropan-2-yl)pyrazolo[1,5-a]pyrimidine-3-carboxamide]", "inhibition at 1 µM": 54},
      {"smiles": "COc1ncc(F)cc1[C@H]1CCCN1c1ccn2ncc(C(=O)N[C@H]3CC[C@H](O)C3)c2n1", "note": "[Example 154, 5-((R)-2-(5-fluoro-2-methoxypyridin-3-yl)pyrrolidin-1-yl)-N-((1S,3S)-3-hydroxycyclopentyl)pyrazolo[1,5-a]pyrimidine-3-carboxamide]", "inhibition at 1 µM": 64.4},
      {"smiles": "O=C(N[C@H]1CC[C@H](O)C1)c1cnn2ccc(N3CCC[C@@H]3c3cc(F)ccc3F)nc12", "note": "[Example 169, 5-((R)-2-(2,5-difluorophenyl)pyrrolidin-1-yl)-N-((1S,3S)-3-hydroxycyclopentyl)pyrazolo[1,5-a]pyrimidine-3-carboxamide]", "inhibition at 1 µM": 51.9},
      {"smiles": "O=C(Nc1ccc(F)cn1)c1cnn2ccc(N3CCC[C@@H]3c3cncc(F)c3)nc12", "note": "[Example 95, (R)—N-(5-fluoropyridin-2-yl)-5-(2-(5-fluoropyridin-3-yl)pyrrolidin-1-yl)pyrazolo[1,5-a]pyrimidine-3-carboxamide]", "inhibition at 1 µM": 19.2},
      {"smiles": "Cn1cc(F)cc([C@H]2CCCN2c2ccn3ncc(C(=O)N[C@H](CO)C(C)(C)C)c3n2)c1=O", "note": "[Example 233, 5-((R)-2-(5-fluoro-1-methyl-2-oxo-1,2-dihydropyridin-3-yl)pyrrolidin-1-yl)-N-((S)-1-hydroxy-3,3-dimethylbutan-2-yl)pyrazolo[1,5-a]pyrimidine-3-carboxamide]", "inhibition at 1 µM": 6.7},
      {"smiles": "COc1ncc(F)cc1[C@H]1CCCN1c1ccn2ncc(C(=O)NCCO)c2n1", "note": "[Example 155, (R)-5-(2-(5-fluoro-2-methoxypyridin-3-yl)pyrrolidin-1-yl)-N-(2-hydroxyethyl)pyrazolo[1,5-a]pyrimidine-3-carboxamide]", "inhibition at 1 µM": 33.3},
      {"smiles": "CC1(NC(=O)c2cnn3ccc(N4CCC[C@@H]4c4cncc(F)c4)nc23)CCC1", "note": "[Example 102, (R)-5-(2-(5-fluoropyridin-3-yl)pyrrolidin-1-yl)-N-(1-methylcyclobutyl)pyrazolo[1,5-a]pyrimidine-3-carboxamide]", "inhibition at 1 µM": 17.3},
      {"smiles": "O=C(c1cnn2ccc(N3CCC[C@@H]3c3cc(F)ccc3F)nc12)N1CC[C@@H](O)C1", "note": "[Example 19, (5-((R)-2-(2,5-difluorophenyl)pyrrolidin-1-yl)pyrazolo[1,5-a]pyrimidin-3-yl)((R)-3-hydroxypyrrolidin-1-yl)methanone]", "inhibition at 1 µM": 3.4},
      {"smiles": "NC(=O)c1cnn2ccc(N3CCC[C@@H]3c3cncc(F)c3)nc12", "note": "[Example 117, (R)-5-(2-(5-fluoropyridin-3-yl)pyrrolidin-1-yl)pyrazolo[1,5-a]pyrimidine-3-carboxamide]", "inhibition at 1 µM": -1.4},
      {"smiles": "COc1ncc(F)cc1[C@H]1CCCN1c1ccn2ncc(C(=O)NCCCNC(=O)OC(C)(C)C)c2n1", "note": "[Example 141, (R)-tert-butyl 3-(5-(2-(5-fluoro-2-methoxypyridin-3-yl)pyrrolidin-1-yl)pyrazolo[1,5-a]pyrimidine-3-carboxamido)propylcarbamate]", "inhibition at 1 µM": 9.4},
      {"smiles": "C[C@H](CO)NC(=O)c1cnn2ccc(N3CCC[C@@H]3c3cncc(F)c3)nc12", "note": "[Example 115, 5-((R)-2-(5-fluoropyridin-3-yl)pyrrolidin-1-yl)-N-((R)-1-hydroxypropan-2-yl)pyrazolo[1,5-a]pyrimidine-3-carboxamide]", "inhibition at 1 µM": 12.6},
      {"smiles": "Nc1ncc(F)cc1[C@H]1CCCN1c1ccn2ncc(C(=O)N3CCC3)c2n1", "note": "[Example 221, (R)-(5-(2-(2-amino-5-fluoropyridin-3-yl)pyrrolidin-1-yl)pyrazolo[1,5-a]pyrimidin-3-yl)(azetidin-1-yl)methanone]", "inhibition at 1 µM": -1.2},
      {"smiles": "O=C(NCCN1CCOCC1)c1cnn2ccc(N3CCC[C@@H]3c3cc(F)ccc3F)nc12", "note": "[Example 4, (R)-5-(2-(2,5-difluorophenyl)pyrrolidin-1-yl)-N-(2-morpholinoethyl)pyrazolo[1,5-a]pyrimidine-3-carboxamide]", "inhibition at 1 µM": 18.8},
      {"smiles": "COCC(C)NC(=O)c1cnn2ccc(N3CCCC3c3cncc(F)c3)nc12", "note": "[Example 118, 5-((R)-2-(5-fluoropyridin-3-yl)pyrrolidin-1-yl)-N-(1-methoxypropan-2-yl)pyrazolo[1,5-a]pyrimidine-3-carboxamide]", "inhibition at 1 µM": -4.5},
      {"smiles": "O=C(N[C@@H]1CCC[C@@H]1O)c1cnn2ccc(N3CCC[C@@H]3c3cncc(F)c3)nc12", "note": "[Example 135, 5-((R)-2-(5-fluoropyridin-3-yl)pyrrolidin-1-y1)-N-((1R,2S)-2-hydroxycyclopentyl)pyrazolo[1,5-a]pyrimidine-3-carboxainide]", "inhibition at 1 µM": -1},
      {"smiles": "CC(C)(CO)NC(=O)c1cnn2ccc(N3CCC[C@@H]3c3cc(F)ccc3F)nc12", "note": "[Example 8, (R)-5-(2-(2,5-difluorophenyl)pyrrolidin-1-yl)-N-(1-hydroxy-2-methylpropan-2-yl)pyrazolo[1,5-a]pyrimidine-3-carboxamide]", "inhibition at 1 µM": 25.7}
    ]}
  ]
}
